{"source": "patent US7258872B1", "about": "“Chromone enteric release formulation” (Thornton & Ross Limited, priority 1998, dated 2007)", "key": {"[1]": {"conditions": "cited from earlier work"}, "B lymphocytes": {"tested_on": "B lymphocytes", "conditions": "cited from earlier work"}, "[2]": {"assay": "Solubility of sodium cromoglycate in water", "format": "physicochemical", "source_text": "Water may be used without additional binder or surfactant."}}}
{"compound": "O=C(O)c1cc(=O)c2c(OCC(O)COc3cccc4oc(C(=O)O)cc(=O)c34)cccc2o1", "note": "[sodium cromoglycate]", "values": [{"measurement": "solubility in acid", "setting": "[1]; acid medium / gastric fluid", "value": "insoluble in an acid medium"}, {"measurement": "lipid solubility", "setting": "[1]; model assumption", "value": "lipid insoluble"}, {"measurement": "water solubility", "setting": "[1]; model assumption", "value": "water soluble"}, {"measurement": "effect on IgE synthesis by B lymphocytes", "setting": "B lymphocytes", "value": "reduce the ability of IgE-producing cells, the B lymphocytes, to synthesise IgE antibody"}, {"measurement": "freely soluble up to", "setting": "[2]", "value": "up to 5%"}, {"measurement": "soluble with difficulty up to", "setting": "[2]", "value": "up to 10%"}]}
